Measurements as given in patent publication US6906097B2, “8-azaprostaglandin analogs as agents for lowering intraocular pressure” (Allergan, Inc., priority 2002, dated 2005).

Molecular target: T1, hEP1 (Homo sapiens, UniProt P34995)
T1 construct: expressed in transfected cells
T1 sequence (P34995 1-402): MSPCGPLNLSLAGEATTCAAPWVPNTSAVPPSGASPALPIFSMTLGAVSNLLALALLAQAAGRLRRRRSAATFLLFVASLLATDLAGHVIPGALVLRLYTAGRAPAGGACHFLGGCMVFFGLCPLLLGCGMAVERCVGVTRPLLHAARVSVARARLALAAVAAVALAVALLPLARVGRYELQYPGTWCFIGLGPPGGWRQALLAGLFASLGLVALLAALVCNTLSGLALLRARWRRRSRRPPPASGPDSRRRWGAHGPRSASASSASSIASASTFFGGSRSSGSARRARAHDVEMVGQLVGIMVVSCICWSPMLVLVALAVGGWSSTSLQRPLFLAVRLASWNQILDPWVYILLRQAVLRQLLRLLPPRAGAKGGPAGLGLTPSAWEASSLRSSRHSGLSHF
Experiment: Functional data, human recombinant EP1 receptor stable transfectants
Assay type: cell-based
Method: Human Recombinant EP1, EP2, EP3, EP4, FP, TP, IP and DP Receptors: Stable Transfectants
Plasmids encoding the human EP1, EP2, EP3, EP4, FP, TP, IP and DP receptors were prepared by cloning the respective coding sequences into the eukaryotic expression vector pCEP4 (Invitrogen). The pCEP4 vector contains an Epstein Barr virus (EBV) origin of replication, which permits episomal replication in primate cell lines expressing EBV nuclear antigen (EBNA-1). It also contains a hygromycin resistance gene that is used for eukaryotic selection. The cells employed for stable transfection were human embryonic kidney cells (HEK-293) that were transfected with and express the EBNA-1 protein. These HEK-293-EBNA cells (Invitrogen) were grown in medium containing Geneticin (G418) to maintain expression of the EBNA-1 protein. HEK-293 cells were grown in DMEM with 10% fetal bovine serum (FBS), 250 μg ml^−1 G418 (Life Technologies) and 200 μg ml^−1 gentamicin or penicillin/streptomycin.
For transfection, the cells were grown to 50-60% confluency on 10 cm plates. The plasmid pCEP4 incorporating cDNA inserts for the respective human prostanoid receptor (20 μg) was added to 500 μl of 250 mM CaCl2. HEPES buffered saline×2 (2×HBS, 280 mM NaCl, 20 mM HEPES acid, 1.5 mM Na2 HPO4, pH 7.05-7.12) was then added dropwise to a total of 500 μl, with continuous vortexing at room temperature. After 30 min, 9 ml DMEM were added to the mixture. The DNA/DMEM/calcium phosphate mixture was then added to the cells, which had been previously rinsed with 10 ml PBS. The cells were then incubated for 5 hr at 37° C. in humidified 95% air/5% CO2. The calcium phosphate solution was then removed and the cells were treated with 10% glycerol in DMEM for 2 min. The glycerol solution was then replaced by DMEM with 10% FBS. The cells were incubated overnight and the medium was replaced by DMEM/10% FBS containing 250 μg ml^−1 G418 and penicillin/streptomycin. The following day hygromycin B was added to a final concentration of 200 μg ml^−1.
Ten days after transfection, hygromycin B resistant clones were individually selected and transferred to a separate well on a 24 well plate. At confluence each clone was transferred to one well of a 6 well plate, and then expanded in a 10 cm dish. Cells were maintained under continuous hygromycin selection until use.

Compound: O=C(O)CCCCCCN1C(=O)CC[C@@H]1CCC(O)Cc1cccc(Cl)c1 (stereo partly drawn) [Example 1, 7-[2S-[3R-Hydroxy-4-(chloro-phenyl)-butyl]-5-oxo-pyrrolidin-1-yl]-heptanoic acid]
- EC50: > 10 µM
